Drawing on article PMC3544269 (2012), this text covers binding and KD for four compounds.

In test [1] the test system is #3_7 (group 1) (DNA, aptamer) ATACCAGCTTATTCAATTGGTGGTAGGATGGGCTCGATCGAGGTCTTCAGTCGGCTCGGTTTAGTTTATGTTCTCCTGTAGATAGTAAGTGCAATCT
Kind of test: fluorescent aptamer release from capture-oligo magnetic beads. The note with it: 100 mM NaCl, 5 mM KCl, 2 mM MgCl2, 1 mM CaCl2; 20 mM Tris-HCl pH 7.6, 21 °C; capture oligo i-ODN2Sp; 1 mM compound; threshold 1 pmol eluted.

Test [2] has as its system #13_83 (group 3 representative) (DNA, aptamer) ATACCAGCTTATTCAATTGGGGAGATCTTGAGGCTCGATCGATAGTAGCTGTGACAGTCTACGTTTTATGGTATGCGGGTAGATAGTAAGTGCAATCT
Described as above. The note with it: 100 mM NaCl, 5 mM KCl, 2 mM MgCl2, 1 mM CaCl2; 20 mM Tris-HCl pH 7.6, 21 °C; capture oligo i-ODN2Sp; 1 mM compound; threshold 1 pmol eluted.

In test [3] the test system is #3_18 (group 7) (DNA, aptamer) ATACCAGCTTATTCAATTAGCATGGTGCTGAGGCTTGATCTGGAGGTCGTGAACGAAAATTGGTCGTTTAGTTGGCTCGTAGATAGTAAGTGCAATCT
Described as above. Particulars: 100 mM NaCl, 5 mM KCl, 2 mM MgCl2, 1 mM CaCl2; 20 mM Tris-HCl pH 7.6, 21 °C; capture oligo i-ODN2Sp; 1 mM compound; threshold 1 pmol eluted.

For test [4], the system named is #3_7 (group 1) (DNA, aptamer) ATACCAGCTTATTCAATTGGTGGTAGGATGGGCTCGATCGAGGTCTTCAGTCGGCTCGGTTTAGTTTATGTTCTCCTGTAGATAGTAAGTGCAATCT
Kind of test: fluorescent aptamer release from capture-oligo magnetic beads, one-site fit. Particulars: 100 mM NaCl, 5 mM KCl, 2 mM MgCl2, 1 mM CaCl2; 20 mM Tris-HCl pH 7.6, 21 °C; capture oligo i-ODN2Sp displaced; apparent; kanamycin A 0-1.5 mM.

`CC(C)NCC(O)c1ccc(NS(C)(=O)=O)cc1` (stereo not drawn): the binding entry in test [1], in test [2] and in test [3] was “no” throughout.
As for `Cc1cc(NS(=O)(=O)c2ccc(N)cc2)no1`, the binding result in test [1], in test [2] and in test [3] was “no” throughout.
Take `NC(=O)NS(=O)(=O)c1ccc(N)cc1`: the binding entry in test [1], in test [2] and in test [3] was “no” in each case.
For the compound `NC[C@H]1O[C@H](O[C@H]2[C@H](O)[C@@H](O[C@H]3O[C@H](CO)[C@@H](O)[C@H](N)[C@H]3O)[C@H](N)C[C@@H]2N)[C@H](O)[C@@H](O)[C@@H]1O`, the figures for the binding entry in test [2] and in test [3] were “no” and “yes”, respectively. Further, the KD in test [4] was 24 µM.
